We go through twelve molecules from BindingDB's records for doi:10.7270/Q21V5CDC (Burnham Center For Chemical Genomics, 2010).

This test concerns the target T1, Amyloid-beta A4 precursor protein-binding family A member 1 (Rattus norvegicus, UniProt O35430).
T1 sequence (O35430 whole entry): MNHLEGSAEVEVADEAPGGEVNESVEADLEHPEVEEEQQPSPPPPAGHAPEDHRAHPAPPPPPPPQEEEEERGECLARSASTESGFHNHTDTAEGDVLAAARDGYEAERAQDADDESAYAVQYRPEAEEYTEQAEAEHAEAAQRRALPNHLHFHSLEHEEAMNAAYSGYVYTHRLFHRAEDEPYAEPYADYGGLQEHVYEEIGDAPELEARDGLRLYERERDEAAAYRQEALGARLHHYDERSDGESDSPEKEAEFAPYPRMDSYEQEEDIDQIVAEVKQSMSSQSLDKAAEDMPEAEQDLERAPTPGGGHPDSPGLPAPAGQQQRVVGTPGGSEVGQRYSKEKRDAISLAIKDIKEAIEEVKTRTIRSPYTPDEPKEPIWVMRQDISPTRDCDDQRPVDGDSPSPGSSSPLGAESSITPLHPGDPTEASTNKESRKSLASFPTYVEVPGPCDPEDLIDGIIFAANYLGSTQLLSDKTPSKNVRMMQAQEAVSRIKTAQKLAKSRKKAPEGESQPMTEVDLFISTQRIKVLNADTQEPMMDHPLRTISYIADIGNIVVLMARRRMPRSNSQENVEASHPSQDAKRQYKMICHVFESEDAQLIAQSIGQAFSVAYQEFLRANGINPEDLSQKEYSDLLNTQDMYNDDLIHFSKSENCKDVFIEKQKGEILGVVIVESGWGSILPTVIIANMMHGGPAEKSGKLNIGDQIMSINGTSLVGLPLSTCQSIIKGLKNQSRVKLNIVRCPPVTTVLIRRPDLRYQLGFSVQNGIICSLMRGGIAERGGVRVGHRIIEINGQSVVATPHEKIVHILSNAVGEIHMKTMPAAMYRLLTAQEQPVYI
The test is described as follows: disruptors of Mint-PDZ/N-type channel peptide interaction – biochemical, HTRF, SAR follow-up (AID 2489). (In general: TR-FRET usually uses a lanthanide donor and a delayed reading to cut background.)

pIC50: −log10 of the molar value. “And” between values parts separate entries of the source, which are not always exact repeats. Identical values can stand only once. Where only a bound is given, the exact number is not on record here.

For `CC(=O)Oc1ccc(-n2c(O)c3c(c2O)C2C=CC3O2)cc1` [[4-(1,3-dioxo-3a,4,7,7a-tetrahydro-octahydro-1H-4,7-epoxyisoindol-2-yl)phenyl] acetate], the pIC50 (commonly −log10 of the IC50, conventionally taken in molar units) is less than 4.25.
`COC(=O)c1cc(-n2c(O)c3c(c2O)C2(C)C=CC3(C)O2)ccc1Cl` [MLS000107828] showed a pIC50 of less than 4.25.
In turn, `CCCc1ccc(CC2=C(C(=O)OCC)C(=O)c3ccccc3C2=O)cc1` [MLS000571357] gave a pIC50 of 5.14.
Next, `Cc1ccc(-n2c(O)c3c(c2O)C2(C)C=CC3(C)O2)cc1`: 4.94.
`CC12C=CC(C)(O1)c1c2c(O)n(-c2ccccc2)c1O` [4,7-dimethyl-2-phenyl-3a,7a-dihydro-octahydro-1H-4,7-epoxyisoindole-1,3-dione] showed a pIC50 of 4.93.
The molecule `CC12C=CC(C)(O1)c1c2c(O)n(-c2ccc3c(c2)OCO3)c1O` gave a pIC50 of less than 4.25.
`CCCCc1ccc(CC2=C(C(=O)OCC)C(=O)c3ccccc3C2=O)cc1` showed a pIC50 of 4.79.
Take `Cc1cccc(-n2c(O)c3c(c2O)C2(C)C=CC3(C)O2)c1` [4,7-dimethyl-2-(3-methylphenyl)-3a,7a-dihydro-octahydro-1H-4,7-epoxyisoindole-1,3-dione]: the pIC50 is 4.56. This pIC50 lies 0.23 log units lower than the previous one.
Take `CC(=O)Oc1cccc(-n2c(O)c3c(c2O)C2(C)C=CC3(C)O2)c1`: the pIC50 was 4.92 and 4.74.
In turn, `CC(=O)Oc1ccc(-n2c(O)c3c(c2O)C2(C)C=CC3(C)O2)cc1` [MLS000107813] gave a pIC50 of 5.11.
Take `CC12C=CC(C)(O1)c1c2c(O)n(-c2ccc(F)cc2)c1O` [2-(4-fluorophenyl)-4,7-dimethyl-3a,7a-dihydro-octahydro-1H-4,7-epoxyisoindole-1,3-dione]: the pIC50 was 4.97.
With `CC12C=CC(C)(O1)c1c2c(O)n(-c2ccc(Cl)cc2)c1O`, the pIC50 was less than 4.25.
